For one assay, the system named is S. Aureus Smith. Nature of the assay: In vitro antibacterial activity, MIC (modified Autotiter method). The assay is classed as cell-based, Staphylococcus aureus. To be noted: Staphylococcus aureus, 20 h, 18-20 hours at 37° C.; read-out: MIC S. Aureus Smith. Put shortly: (§1)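 MIC values come from a twofold dilution series spanning final concentrations of 500 down to 0.06 mcg./ml. Dilutions were prepared automatically in sterile water from a 1,000 mcg./ml. solution before inoculated double-strength glucose-containing semisynthetic medium was added.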

The next assay has as its system S. pyogen. C203. The assay is described as above. It counts as cell-based, Streptococcus pyogenes. Conditions: 18-20 hours at 37° C.; for MIC: Streptococcus pyogenes, 20 h, read-out: MIC S. pyogen. C203. Put shortly: as §1
For the next assay, the system named is C. albicans 10231. Nature of the assay: In vitro antifungal activity, MIC (modified Autotiter method). The assay is classed as cell-based, Candida albicans. Conditions: Candida albicans, 10231, 20 h, 18-20 hours at 37° C.; read-out: MIC C. albicans 10231. Put shortly:
as §1

The next assay deals with C. albicans Wisc. The assay is described as above. The assay is classed as cell-based, Candida albicans. To be noted: Candida albicans, 20 h, 18-20 hours at 37° C.; read-out: MIC C. albicans Wisc. Put shortly:
as §1

Another assay relates to A. niger 16404. The description is as above. The assay is classed as cell-based, Aspergillus niger. Conditions: 18-20 hours at 37° C.; for MIC: Aspergillus niger, 16404, 20 h, read-out: MIC A. niger 16404. The essentials: as §1
Another assay has as its system P. mirab. MGH-1. Nature of the assay: In vitro antibacterial activity, MIC (modified Autotiter method). The assay is classed as cell-based, Proteus mirabilis. Conditions: Proteus mirabilis, 20 h, 18-20 hours at 37° C.; read-out: MIC P. mirab. MGH-1. The essentials: as §1
The subject of another assay is T. menta. 9129. Nature of the assay: In vitro antifungal activity, MIC (modified Autotiter method). It counts as cell-based, Trichophyton mentagrophytes. To be noted: Trichophyton mentagrophytes, 20 h, 18-20 hours at 37° C.; read-out: MIC T. menta. 9129. The essentials: as §1
Assay [1] relates to Herpes simplex type 2 virus. In words: Virucidal activity in vitro (plaque inhibition test). The assay is classed as cell-based. To be noted: 2 mg. of test compound on growth medium. The procedure: Virucidal activity of representative examples against Herpes simplex type 2 virus was determined in vitro employing a procedure similar to the plaque inhibition test for detection of specific inhibitors of DNA-containing viruses published by E. C. Herrmann, Jr., Proc. Soc. Exp. Biol. Med. 107, 142 (1961) wherein 2 mg. of the test compound was placed on the surface of the growth medium.

The test system of a further assay is K. pneum. 39645. In words: In vitro antibacterial activity, MIC (modified Autotiter method). It counts as cell-based, Klebsiella pneumoniae. Conditions: Klebsiella pneumoniae, 20 h, 18-20 hours at 37° C.; read-out: MIC K. pneum. 39645. Put shortly: as §1
For the next assay, the system named is Ps. aerug. MGH-2. Described as above. It counts as cell-based, Pseudomonas aeruginosa. To be noted: Pseudomonas aeruginosa, 20 h, 18-20 hours at 37° C.; read-out: MIC Ps. aerug. MGH-2. Put shortly: as §1
The subject of the next assay is E. coli AB1932-1. Described as above. The assay is classed as cell-based, Escherichia coli. To be noted: Escherichia coli, AB19321, 20 h, 18-20 hours at 37° C.; read-out: MIC E. coli AB1932-1. Put shortly:
as §1

For a further assay, the system named is E. coli Vogel. The assay is described as above. The assay is classed as cell-based, Escherichia coli. Conditions: Escherichia coli, 20 h, 18-20 hours at 37° C.; read-out: MIC E. coli Vogel. Put shortly:
as §1

The next assay has as its system E. coli 100/B22. The assay is described as above. It counts as cell-based, Escherichia coli. To be noted: Escherichia coli, 100/B22, 20 h, 18-20 hours at 37° C.; read-out: MIC E. coli 100/B22. The essentials:
as §1

For the compound `c1c[n+](CCCCCCCCCC[n+]2ccc(NC3CCCCC3)cc2)ccc1NC1CCCCC1` [Example 40, 1,10-bis-[4-(cyclohexylamino)-1-pyridinium]decane dibromide], the MIC is 0.24 µg/mL with S. Aureus Smith; 3.9 µg/mL with S. pyogen. C203; 3.9 µg/mL in the assay on C. albicans 10231; 7.8 µg/mL in the assay on C. albicans Wisc.; 7.8 µg/mL with A. niger 16404; above 125 µg/mL in the assay on P. mirab. MGH-1. Also, the MIC was 1.95 µg/mL with T. menta. 9129; above 125 µg/mL in the assay with K. pneum. 39645; above 125 µg/mL in the assay with Ps. aerug. MGH-2; 7.8 µg/mL with E. coli AB1932-1; 15.6 µg/mL with E. coli Vogel; 15.6 µg/mL in the assay on E. coli 100/B22. Besides, the “Virucidal activity against Herpes simplex type 2 virus” value (from here on “Virucidal activity”) in assay [1] is “inactive”.

Turning to `CCCCC(CC)CNc1cc[n+](CCCCC[n+]2ccc(NCC(CC)CCCC)cc2)cc1` (stereo not shown) [Example 53, 1,5-bis-[4-(2-ethylhexylamino)-1-pyridinium]pentane dibromide], the MIC in the assay with S. Aureus Smith was 0.49 µg/mL; in the assay on S. pyogen. C203 it was 0.625 µg/mL; in the assay on C. albicans 10231 it was 31.3 µg/mL; with C. albicans Wisc., 15.6 µg/mL; with A. niger 16404, 31.3 µg/mL; with P. mirab. MGH-1, above 125 µg/mL. Moreover, the MIC in the assay with T. menta. 9129 is 7.8 µg/mL; in the assay on K. pneum. 39645 it was above 125 µg/mL; with Ps. aerug. MGH-2, 125 µg/mL; in the assay on E. coli AB1932-1, 7.8 µg/mL; in the assay with E. coli Vogel it was 15.6 µg/mL; with E. coli 100/B22, 15.6 µg/mL. In addition, in assay [1], the “Virucidal activity” value was “active”.

Consider `CCCCC(CC)CNc1cc[n+](CCCCCC[n+]2ccc(NCC(CC)CCCC)cc2)cc1` (stereo not shown) [Example 54, 1,6-bis-[4-(2-ethylhexylamino)-1-pyridinium]hexane dibromide], for which the MIC in the assay with S. Aureus Smith is 0.49 µg/mL; in the assay on S. pyogen. C203, 0.625 µg/mL; in the assay on C. albicans 10231 it was 7.8 µg/mL; in the assay with C. albicans Wisc., 7.8 µg/mL; in the assay on A. niger 16404, 15.6 µg/mL; with P. mirab. MGH-1 it was above 125 µg/mL. Moreover, the MIC was 1.95 µg/mL in the assay with T. menta. 9129; 125 µg/mL with K. pneum. 39645; above 250 µg/mL with Ps. aerug. MGH-2; 1.95 µg/mL in the assay with E. coli AB1932-1; 7.8 µg/mL with E. coli Vogel; 3.9 µg/mL with E. coli 100/B22. Besides, the “Virucidal activity” value in [1] is recorded as “active”.

Consider `CCCCC(CC)CNc1cc[n+](CCCCCCC[n+]2ccc(NCC(CC)CCCC)cc2)cc1` (stereo not shown) [Example 55, 1,7-bis-[4-(2-ethylhexylamino)-1-pyridinium]heptane dibromide], for which the MIC in the assay with S. Aureus Smith is 0.49 µg/mL; in the assay on S. pyogen. C203, 0.49 µg/mL; in the assay with C. albicans 10231 it was 7.8 µg/mL; with C. albicans Wisc., 7.8 µg/mL; in the assay with A. niger 16404, 15.6 µg/mL; in the assay on P. mirab. MGH-1, above 125 µg/mL. In addition, the MIC in the assay on T. menta. 9129 turned out to be 1.95 µg/mL; in the assay with K. pneum. 39645, 7.8 µg/mL; with Ps. aerug. MGH-2, 125 µg/mL; in the assay with E. coli AB1932-1 it was 3.9 µg/mL; in the assay on E. coli Vogel it was 3.9 µg/mL; in the assay on E. coli 100/B22, 3.9 µg/mL. Further, the “Virucidal activity” value in assay [1] is recorded as “active”.

Turning to `CCCCC(CC)CNc1cc[n+](CCCCCCCCC[n+]2ccc(NCC(CC)CCCC)cc2)cc1` (stereo not shown) [Example 57, 1,9-bis-[4-(2-ethylhexylamino)-1-pyridinium]nonane dibromide], the MIC came out at 0.31 µg/mL in the assay on S. Aureus Smith; 0.625 µg/mL in the assay on S. pyogen. C203; 3.9 µg/mL in the assay on C. albicans 10231; 3.9 µg/mL in the assay with C. albicans Wisc.; 15.6 µg/mL in the assay with A. niger 16404; 125 µg/mL in the assay on P. mirab. MGH-1. The MIC in the assay with T. menta. 9129 came to 0.98 µg/mL; with K. pneum. 39645, 7.8 µg/mL; with Ps. aerug. MGH-2, 125 µg/mL; in the assay with E. coli AB1932-1 it was 0.98 µg/mL; in the assay on E. coli Vogel, 0.98 µg/mL; with E. coli 100/B22, 0.98 µg/mL. The “Virucidal activity” value in [1] is recorded as “active”.

For the compound `CCCCCCCNc1cc[n+](CCCCC[n+]2ccc(NCCCCCCC)cc2)cc1` [Example 60, 1,5-bis-[4-(heptylamino)-1-pyridinium]pentane dibromide], the MIC in the assay with S. Aureus Smith was 0.49 µg/mL; in the assay on S. pyogen. C203 it was 1.95 µg/mL; in the assay with C. albicans 10231 it was 15.6 µg/mL; in the assay with C. albicans Wisc. it was 15.6 µg/mL; with A. niger 16404 it was 15.6 µg/mL; with P. mirab. MGH-1, above 125 µg/mL. For the same compound, the MIC with T. menta. 9129 was determined as 7.8 µg/mL; with K. pneum. 39645, 31.3 µg/mL; with Ps. aerug. MGH-2, 125 µg/mL; in the assay with E. coli AB1932-1, 3.9 µg/mL; in the assay on E. coli Vogel, 31.3 µg/mL; in the assay with E. coli 100/B22, 7.8 µg/mL. Further, the “Virucidal activity” value in assay [1] was “active”.

For the compound `CCCCCCCNc1cc[n+](CCCCCC[n+]2ccc(NCCCCCCC)cc2)cc1` [Example 61, 1,6-bis-[4-(heptylamino)-1-pyridinium]hexane dibromide], the MIC was 0.2 µg/mL in the assay on S. Aureus Smith; 6.25 µg/mL in the assay with C. albicans 10231; 6.25 µg/mL in the assay with C. albicans Wisc.; above 250 µg/mL in the assay on P. mirab. MGH-1; 3.13 µg/mL in the assay on T. menta. 9129; 6.3 µg/mL with K. pneum. 39645. The MIC in the assay on Ps. aerug. MGH-2 was 125 µg/mL; in the assay with E. coli AB1932-1, 1.6 µg/mL; in the assay with E. coli Vogel, 3.1 µg/mL; in the assay with E. coli 100/B22 it was 1.6 µg/mL. For the same compound, the “MIC S. pyogen. C203” value in the assay on S. pyogen. C203 is 0.4 µg/mL. The “MIC A. niger 16404” value in the assay with A. niger 16404 came to 25 µg/mL. For the same compound, the “Virucidal activity” value in assay [1] is “active”.

On to `CCCCC(CC)CNc1cc[n+](CCCC[n+]2ccc(NCC(CC)CCCC)cc2)cc1` (stereo not shown) [Example 63, 1,4-bis-[4-(2-ethylhexylamino)-1-pyridinium]butane dibromide], for which the MIC was 0.98 µg/mL with S. Aureus Smith; 1.25 µg/mL with S. pyogen. C203; 31.3 µg/mL with C. albicans 10231; 31.3 µg/mL in the assay on C. albicans Wisc.; 31.3 µg/mL in the assay on A. niger 16404; above 125 µg/mL in the assay with P. mirab. MGH-1. In addition, the MIC is 15.6 µg/mL in the assay on T. menta. 9129; above 125 µg/mL in the assay on K. pneum. 39645; 125 µg/mL with Ps. aerug. MGH-2; 7.8 µg/mL in the assay with E. coli AB1932-1; 62.5 µg/mL with E. coli Vogel; 31.3 µg/mL in the assay with E. coli 100/B22. The “Virucidal activity” value in assay [1] is “active”.

As for `Clc1ccc(Nc2cc[n+](CCCCCCC[n+]3ccc(Nc4ccc(Cl)cc4)cc3)cc2)cc1` [Example 81, 1,7-bis-[4-(p-chlorophenylamino)-1-pyridinium]heptane dibromide], the MIC in the assay with S. Aureus Smith was 0.98 µg/mL; with S. pyogen. C203, 0.49 µg/mL; in the assay with C. albicans 10231, 31.3 µg/mL; in the assay with C. albicans Wisc. it was 31.3 µg/mL; in the assay with A. niger 16404, 31.3 µg/mL; in the assay with P. mirab. MGH-1 it was above 125 µg/mL. For the same compound, the MIC in the assay with T. menta. 9129 was 7.8 µg/mL; with K. pneum. 39645, above 125 µg/mL; in the assay on Ps. aerug. MGH-2 it was above 125 µg/mL; with E. coli AB1932-1 it was 125 µg/mL; in the assay on E. coli Vogel, 3.9 µg/mL; in the assay on E. coli 100/B22, 3.9 µg/mL. For the same compound, the “Virucidal activity” value in assay [1] is listed as “active”.

For the compound `Clc1ccc(Nc2cc[n+](CCCCCCCCC[n+]3ccc(Nc4ccc(Cl)cc4)cc3)cc2)cc1` [Example 82, 1,9-bis-[4-(p-chlorophenylamino)-1-pyridinium]nonane dibromide], the MIC is 0.625 µg/mL in the assay with S. Aureus Smith; 0.24 µg/mL in the assay on S. pyogen. C203; 3.9 µg/mL in the assay with C. albicans 10231; 3.9 µg/mL in the assay with C. albicans Wisc.; 15.6 µg/mL in the assay with A. niger 16404; above 125 µg/mL in the assay with P. mirab. MGH-1. In addition, the MIC came to 3.9 µg/mL with T. menta. 9129; 7.8 µg/mL with K. pneum. 39645; 125 µg/mL in the assay on Ps. aerug. MGH-2; 0.98 µg/mL with E. coli AB1932-1; 0.98 µg/mL in the assay with E. coli Vogel; 1.95 µg/mL in the assay on E. coli 100/B22. Further, the “Virucidal activity” value in [1] is “active”.

The values are drawn from patent US4206215A, “Antimicrobial bis-[4-(substituted-amino)-1-pyridinium]alkanes” (Sterling Drug Inc., priority 1977, dated 1980).
